The record followed here is patent US20110251188A1, “ACENAPHTHO HETEROCYCLE COMPOUNDS, CYCLODEXTRIN INCLUSION COMPOUNDS AND COMPLEXES, AND USES IN THE MANUFACTURES OF BH3 PROTEIN ANALOGUE, BCL-2 FAMILY PROTEIN INHIBITORS THEREOF” (DALIAN UNIVERSITY OF TECHNOLOGY, priority 2008, published 2011).

For test [1], the target named is T1, interaction between Bcl-2 and Bax (Homo sapiens, UniProt P10415).
T1 construct: expressed in transfected cells; host or cells: Hela cells
Kind of test: intracellular fluorescence polarization energy transfer (FRET), Hela cells transfected with Bcl-2-CFP and Bax-YFP. In kind it is cell-based. The conditions noted are these: for Time for which the compound interfered with the interaction between Bcl-2 and Bax: goes with the concentration of E11; for Concentration at which the compound interfered with the interaction between Bcl-2 and Bax: goes with the time of E12. The procedure:
24 hours later (please refer to FIG. 2), the cells were washed with PBS for three times. The fluorescence value was detected by GENIOS fluorescence enzyme-labelled meter (TECAN, Swiss). In time-dependent experiment, the transfected cells were inoculated in a 6-well plate, after that, 40 μM of the compound was added thereinto. 3, 6 and 24 hours later (FIG. 3), the fluorescence intensities were detected by plate reader. As for the cell group in which only Bcl-2-CFP plasmid was transfected, the values at 475 nm emission wave length and 433 nm excitation wave length were recorded. As for the cell group in which only Bax-YFP plasmid was transfected, the values at 527 nm emission wave length and 505 nm excitation wave length were recorded. […] The ratio of fluorescence intensity at 527 nm and 475 nm emission wave lengths was FRET. The FRET for the control group in which the plasmid was solely transfected was set as 1.0. […] The cellular vitality was detected by MTT method.
Wherein the concentration and time meant that the detected compound interfered with the interaction between Bcl-2 and Bax at the concentration for the time period.

In the next test the test system is Bax protein. Nature of the test: co-localization between Bax protein and chondriosome, Bax-YFP transfected MCF-7 cells. The conditions noted are these: for Time for which the compound drove the BAX to shift towards the chondriosome: goes with the concentration of E14; for Concentration at which the compound drove the BAX to shift towards the chondriosome: goes with the time of E15. In kind it is cell-based. How it is done:
5 ng of Bax-YFP plasmid was transfected into MCF-7 cells by using calcium phosphate coprecipitation method, 24 hours later, the cells were inoculated in a 6-well plate (0.2×10^6 cells/well), and 10 μM of the compound 3-thiomorpholinyl-8-oxo-8 H-acenaphtho[1,2-b]pyrrole-9-carbonitrile to be detected was added thereinto. 6 hours later, the cells were washed with PBS and hatched away from light with 50 nM Mito Tracker Red CMXRos (chondriosome specific probes; red) for 10 minutes. Then the cells were washed with PBS for three times, and the fluorescent image was scanned with Radiance2000 laser confocal microscopy (Bio-Rad, USA). Meanwhile, dual channel scanning was carried out, one channel was used to scan the green fluorescence of Bax-YFP, and the other channel was used to scan the red fluorescence of the CMXRos probe for indicating the chondriosome. […] When the Bax protein was localized on the chondriosome, the green and red fluorescence was superimposed into orange, as shown in FIG. 4.
Other 8 compounds were detected by the same experimental method as described above. […] Wherein the concentration and time meant that the detected compound simulated the BH3-only protein and driven the BAX to shift towards the chondriosome at the concentration for the time period.

Molecules are shown by their SMILES.

T1 sequence (P10415 whole entry): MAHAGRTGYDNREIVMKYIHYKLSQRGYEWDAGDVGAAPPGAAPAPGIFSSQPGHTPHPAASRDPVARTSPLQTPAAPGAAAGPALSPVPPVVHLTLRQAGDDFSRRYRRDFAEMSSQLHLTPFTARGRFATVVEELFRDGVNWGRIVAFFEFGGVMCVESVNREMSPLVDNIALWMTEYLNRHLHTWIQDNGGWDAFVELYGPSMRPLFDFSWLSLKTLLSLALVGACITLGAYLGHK

Take `N#CC1=C2C(=NC1=O)c1c(Sc3ccc(N)cc3)ccc3c(Sc4ccc(N)cc4)ccc2c13` [3,6-di(4-aminophenylthio)-8-oxo-8 H-acenaphtho[1,2-b]pyrrole-9-carbonitrile]: in test [1], the “Time for which the compound interfered with the interaction between Bcl-2 and Bax” value was determined as 2 h; the “Concentration at which the compound interfered with the interaction between Bcl-2 and Bax” value came out at 1.0 µM. Further, in the test on Bax protein, the “Time for which the compound drove the BAX to shift towards the chondriosome” value came to 6 h and the “Concentration at which the compound drove the BAX to shift towards the chondriosome” value was 5.0 µM.
On the same counts, the results for `N#CC1=C2C(=NC1=O)c1c(Sc3ccc(Br)cc3)ccc3c(Sc4ccc(Br)cc4)ccc2c13` [3,6-di(4-bromophenylthio)-8-oxo-8H-acenaphtho[1,2-b]pyrrole-9-carbonitrile] are 2 h, 1.0 µM, 6 h and 5.0 µM.
Taken in the same sequence, the figures for `N#CC1=C2C(=NC1=O)c1cccc3c(Sc4ccc(Br)cc4)ccc2c13` [3-(4-bromophenylthio)-8-oxo-8H-acenaphtho[1,2-b]pyrrole-9-carbonitrile] were 2 h, 0.5 µM, 6 h and 1.0 µM.
Taken in the same sequence, the figures for `N#CC1=C2C(=NC1=O)c1c(Sc3ccc(N)cc3)ccc3cccc2c13` [6-(4-aminophenylthio)-8-oxo-8H-acenaphtho[1,2-b]pyrrole-9-carbonitrile] were 2 h, 0.2 µM, 6 h and 5.0 µM.
With `N#CC1=C2C(=NC1=O)c1cccc3cccc2c13` [8-oxo-8H-acenaphtho[1,2-b]pyrrole-9-carbonitrile], in test [1], the “Time for which the compound interfered with the interaction between Bcl-2 and Bax” value worked out at 2 h; the “Concentration at which the compound interfered with the interaction between Bcl-2 and Bax” value turned out to be 0.1 µM. Also, in the test on Bax protein, the “Time for which the compound drove the BAX to shift towards the chondriosome” value turned out to be 3 h and the “Concentration at which the compound drove the BAX to shift towards the chondriosome” value was found to be 1.0 µM.
